Measurements published in the supplement of paper PMC10307832.

Experiments:
Experiment in all cases: relative viability (nuclei count vs DMSO), 5 days (fraction); higher = more cells survive
Dactolisib + Foretinib = compound: Cn1c(=O)n(-c2ccc(C(C)(C)C#N)cc2)c2c3cc(-c4cnc5ccccc5c4)ccc3ncc21 [Dactolisib] + COc1cc2c(Oc3ccc(NC(=O)C4(C(=O)Nc5ccc(F)cc5)CC4)cc3F)ccnc2cc1OCCCN1CCOCC1 [Foretinib] (partner 0.25 µM)
Outline: (§1)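 Relative viability is defined as nuclei in treated wells over nuclei in vehicle wells. Duplicate plates were run and medians reported. Lung cancer cell lines in 1536-well plates were dosed by pin tool one day after seeding, with one drug or with a fixed anchor-drug dose plus five library-drug doses (not always all listed) in √10 steps, and nuclei were counted after 5 days.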

AZ505 + Bortezomib = compound: C1CCC(CC1)N(CCNCCC2=C3C(=C(C=C2)O)NC(=O)CO3)C(=O)CCNCCC4=CC(=C(C=C4)Cl)Cl [AZ505] + CC(C)C[C@H](NC(=O)[C@H](Cc1ccccc1)NC(=O)c1cnccn1)B(O)O [Bortezomib] (partner 0.002 µM)
Outline: as §1

Dactolisib + Trametinib = compound: Cn1c(=O)n(-c2ccc(C(C)(C)C#N)cc2)c2c3cc(-c4cnc5ccccc5c4)ccc3ncc21 [Dactolisib] + CC(=O)Nc1cccc(-n2c(=O)n(C3CC3)c(=O)c3c(Nc4ccc(I)cc4F)n(C)c(=O)c(C)c32)c1 [Trametinib] (partner 0.02 µM)
Outline: as §1

AZ505 + Dasatinib = compound: C1CCC(CC1)N(CCNCCC2=C3C(=C(C=C2)O)NC(=O)CO3)C(=O)CCNCCC4=CC(=C(C=C4)Cl)Cl [AZ505] + Cc1nc(Nc2ncc(C(=O)Nc3c(C)cccc3Cl)s2)cc(N2CCN(CCO)CC2)n1 [Dasatinib] (partner 0.075 µM)
Outline: as §1

| Cell Line | relative viability (Dactolisib + Foretinib; first compound 0.002 µM) | relative viability (Dactolisib + Foretinib; first compound 0.006325 µM) | relative viability (Dactolisib + Foretinib; first compound 0.02 µM) | relative viability (Dactolisib + Foretinib; first compound 0.06325 µM) | relative viability (Dactolisib + Foretinib; first compound 0.2 µM) | relative viability (AZ505 + Bortezomib; first compound 0.08 µM) | relative viability (AZ505 + Bortezomib; first compound 0.8 µM) | relative viability (AZ505 + Bortezomib; first compound 2.53 µM) | relative viability (AZ505 + Bortezomib; first compound 8 µM) | relative viability (Dactolisib + Trametinib; first compound 0.002 µM) | relative viability (Dactolisib + Trametinib; first compound 0.006325 µM) | relative viability (Dactolisib + Trametinib; first compound 0.02 µM) | relative viability (Dactolisib + Trametinib; first compound 0.06325 µM) | relative viability (Dactolisib + Trametinib; first compound 0.2 µM) | relative viability (AZ505 + Dasatinib; first compound 0.08 µM) | relative viability (AZ505 + Dasatinib; first compound 0.8 µM) | relative viability (AZ505 + Dasatinib; first compound 2.53 µM) | relative viability (AZ505 + Dasatinib; first compound 8 µM) | relative viability (AZ505 + Bortezomib; first compound 0.253 µM) | relative viability (AZ505 + Dasatinib; first compound 0.253 µM) |
| --- | --- | --- | --- | --- | --- | --- | --- | --- | --- | --- | --- | --- | --- | --- | --- | --- | --- | --- | --- | --- |
| NCI-H23 | 1.17 | 0.997 | 0.69 | 0.456 | 0.413 | 0.674 | 1.21 | 0.956 | 1.07 | 0.468 | 0.361 | 0.276 | 0.229 | 0.179 | 0.721 | 0.722 | 0.797 | 0.877 |  |  |
| 201T | 0.916 | 1.11 | 1.06 | 0.636 | 0.491 | 1.09 | 1.06 | 1.11 | 1.07 | 0.73 | 0.713 | 0.688 | 0.668 | 0.449 | 0.589 | 0.627 | 0.601 | 0.535 | 1.11 | 0.548 |
| NCI-H460 | 1.03 | 1 | 1.03 | 0.493 | 0.407 | 0.945 | 1.04 | 1.09 | 1.11 | 0.2 | 0.0901 | 0.13 | 0.0463 | 0.0358 | 0.529 | 0.557 | 0.314 | 0.59 | 1.24 | 0.416 |
| NCI-H661 | 1.04 | 1.01 | 0.977 | 0.439 | 0.459 | 0.798 | 0.716 | 0.787 | 0.732 | 0.552 | 0.483 | 0.486 | 0.336 | 0.337 | 0.862 | 0.731 | 0.958 | 0.964 | 1.01 | 0.932 |
| HCC-15 | 1.02 | 1.01 | 0.936 | 0.548 | 0.446 | 0.973 | 1.01 | 0.989 | 1.02 | 0.383 | 0.346 | 0.365 | 0.215 | 0.162 | 0.513 | 0.654 | 0.524 | 0.618 | 1.08 | 0.581 |
| LCLC-103H | 1.05 | 0.763 | 0.654 | 0.517 | 0.303 | 0.894 | 1.01 | 1.02 | 1.06 | 0.664 | 0.604 | 0.581 | 0.515 | 0.42 | 0.407 | 0.393 | 0.481 | 0.451 | 1.05 | 0.415 |
| NCI-H441 | 1.14 | 1.04 | 0.961 | 0.432 | 0.382 | 0.751 | 0.598 | 0.432 | 0.621 | 0.523 | 0.412 | 0.43 | 0.217 | 0.213 | 0.35 | 0.659 | 0.549 | 0.694 | 0.636 | 0.619 |
| EPLC-272H | 0.623 | 0.491 | 0.467 | 0.308 | 0.236 | 0.769 | 0.85 | 0.721 | 0.904 | 0.264 | 0.261 | 0.28 | 0.245 | 0.201 |  | 0.315 | 0.265 | 0.344 | 1.04 | 0.371 |
